Our source for the EC50 and Stability values is ChEMBL document CHEMBL1152688, “Bioorganic synthesis of a recombinant HIV-1 fusion inhibitor, SC35EK, with an N-terminal pyroglutamate capping group” (Bioorg Med Chem, 2009).

Non-standard residues stand in square brackets, D forms with d. Residues, ends and D or L forms follow the SMILES beside them. *: point of attachment. hSer(lactone) = O=C1OCC[C@@H]1N*; pGlu = O=C1CC[C@@H](C(=O)O)N1

Series [1] concerns Human immunodeficiency virus 1. Description: Antiviral activity against HIV1 NL4-3 infected in human HeLa cells expressing CD4/CCR5-LTR-beta-gal genes assessed as blockade of viral infection by X-gal staining based MAGI method. Particulars: Human immunodeficiency virus 1, NL4-3, HeLa. In kind it is functional, organism-based.
The test system of another series is Serum. Nature of the series: Stability in mouse serum assessed as compound degradation by LC-MS analysis. In kind it is ADME, cell-free.

Regarding “Ac-WEEWDKKIEEYTKKIEELIKKSEEQQKKNEEELKK-NH2”, the EC50 in series [1] was determined as 0.5 nM. In addition, the Stability result in the series on Serum is “Stable”.
For “H-WEEWDKKIEEYTKKIEELIKKSEEQQKKNEEELKK-OH”, in that order: 2.43 nM and “Unstable”.
Take `CC[C@H](C)[C@H](NC(=O)[C@H](CC(C)C)NC(=O)[C@H](CCC(=O)O)NC(=O)[C@H](CCC(=O)O)NC(=O)[C@@H](NC(=O)[C@H](CCCCN)NC(=O)[C@H](CCCCN)NC(=O)[C@@H](NC(=O)[C@H](Cc1ccc(O)cc1)NC(=O)[C@H](CCC(=O)O)NC(=O)[C@H](CCC(=O)O)NC(=O)[C@@H](NC(=O)[C@H](CCCCN)NC(=O)[C@H](CCCCN)NC(=O)[C@H](CC(=O)O)NC(=O)[C@H](Cc1c[nH]c2ccccc12)NC(=O)[C@H](CCC(=O)O)NC(=O)[C@H](CCC(=O)O)NC(=O)[C@H](Cc1c[nH]c2ccccc12)NC(=O)[C@@H]1CCC(=O)N1)[C@@H](C)CC)[C@@H](C)O)[C@@H](C)CC)C(=O)N[C@@H](CCCCN)C(=O)N[C@@H](CCCCN)C(=O)N[C@@H](CO)C(=O)N[C@@H](CCC(=O)O)C(=O)N[C@@H](CCC(=O)O)C(=O)N[C@@H](CCC(N)=O)C(=O)N[C@@H](CCC(N)=O)C(=O)N[C@@H](CCCCN)C(=O)N[C@@H](CCCCN)C(=O)N[C@@H](CC(N)=O)C(=O)N[C@@H](CCC(=O)O)C(=O)N[C@@H](CCC(=O)O)C(=O)N[C@@H](CCC(=O)O)C(=O)N[C@@H](CC(C)C)C(=O)N[C@@H](CCCCN)C(=O)N[C@@H](CCCCN)C(=O)N[C@H]1CCOC1=O` ([pGlu]WEEWDKKIEEYTKKIEELIKKSEEQQKKNEEELKK-{hSer(lactone)}): in series [1], the EC50 worked out at 0.57 nM. Moreover, in the series with Serum, the Stability result was “Stable”.

One may read the EC50 as the concentration that produces a half-maximal response.
